Data taken from patent US8445674B2, “Heterocyclyl compounds” (Hoffmann-La Roche Inc, priority 2009, dated 2013).

target: T1, human chemokine receptor 2 isoform B (Homo sapiens, UniProt P41597); experiment: Calcium mobilization assay (FLIPR, antagonist activity against MCP-1); type: cell-based; settings: Ca mobilisation assay, CHOK1-CCR2B-A5 cells, inhibition of calcium increase induced by 20 nM MCP-1
T1 construct: host or cells: CHOK1-CCR2B-A5 cells (CHO-K1)
T1 sequence (P41597 1-360 isoform P41597-2): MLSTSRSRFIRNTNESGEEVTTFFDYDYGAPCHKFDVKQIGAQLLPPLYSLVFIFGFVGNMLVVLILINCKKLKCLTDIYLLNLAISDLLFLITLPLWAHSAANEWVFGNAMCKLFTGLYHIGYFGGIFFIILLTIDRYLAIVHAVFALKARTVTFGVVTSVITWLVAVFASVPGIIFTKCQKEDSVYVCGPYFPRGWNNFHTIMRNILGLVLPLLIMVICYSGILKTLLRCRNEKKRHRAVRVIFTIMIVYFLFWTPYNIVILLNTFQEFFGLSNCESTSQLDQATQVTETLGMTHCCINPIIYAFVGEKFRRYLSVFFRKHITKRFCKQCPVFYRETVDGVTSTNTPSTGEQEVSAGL
Description: Calcium Mobilization Assay
CHOK1-CCR2B-A5 cells (from Euroscreen) stably overexpressing the human chemokine receptor 2 isoform B were cultured in Nutrient Hams F12 medium supplemented with 5% FBS, 100 U/ml penicillin, 100 μg/ml streptomycin, 400 μg/ml G418 and 5 μg/ml puromycin.
For the assay cells were grown overnight in 384-well black clear flat bottom polystyrene plates (Costar) at 37° C. at 5% CO2. After washing with DMEM, 20 mM Hepes, 2.5 mM probenecid, 0.1% BSA (DMEM assay buffer) cells were loaded with 4 μM Fluo-4 in the same DMEM assay buffer for 2 hours at 30° C. Excess dye was removed and cells were washed with DMEM assay buffer. 384-well compound plates were prepared with DMEM assay buffer/0.5% DMSO with or without various concentrations of test compounds. Usually compounds were tested for agonist and antagonist activity.
Test compounds were added to the assay plate and agonist activity was monitored as fluorescence for 80 seconds with a FLIPR (488 nm excitation; 510-570 nm emission; Molecular Devices). After 20-30 min. of incubation at 30° C., 20 nM MCP-1 (R&D; Roche) was added and fluorescence was monitored again for 80 seconds. Increases in intracellular calcium are reported as maximum fluorescence after agonist exposure minus basal fluorescence before exposure. Antagonist activity is indicated as inhibitor concentration required for 50% inhibition of specific calcium increases.

IC50 [nM] | SMILES
3830 | C[C@H]1C[C@H](O)CN(C(=O)CCN2CCN(C(=O)Nc3ccc(Cl)c(Cl)c3)[C@@H](C)C2=O)C1 [Example 19, (S)-4-[3-((3S,5S)-3-Hydroxy-5-methyl-piperidin-1-yl)-3-oxo-propyl]-2-methyl-3-oxo-piperazine-1-carboxylic acid (3,4-dichloro-phenyl)-amide]
62.1 | C[C@@H]1C(=O)N(CCCC(=O)N2CCC3(CC3)[C@H](O)C2)[C@@H](C(N)=O)CN1C(=O)Nc1ccc(Cl)c(Cl)c1 [Example 151, (3R,6R)-4-[4-((S)-4-Hydroxy-6-aza-spiro[2.5]oct-6-yl)-4-oxo-butyl]-6-methyl-5-oxo-piperazine-1,3-dicarboxylic acid 3-amide 1-[(3,4-dichloro-phenyl)-amide]]
152 | COC[C@H](CCC(=O)N1CCC2(CC2)[C@H](O)C1)N1CCN(C(=O)Nc2ccc(C(F)(F)F)c(Cl)c2)[C@@H](C)C1=O [Example 139, (S)-4-[(S)-4-((S)-4-Hydroxy-6-aza-spiro[2.5]oct-6-yl)-1-methoxymethyl-4-oxo-butyl]-2-methyl-3-oxo-piperazine-1-carboxylic acid (3-chloro-4-trifluoromethyl-phenyl)-amide]
1080 | C[C@H]1CCN(C(=O)CCN2CCN(C(=O)Nc3ccc(Cl)c(Cl)c3)[C@@H](C)C2=O)C[C@H]1O [Example 20, (S)-4-[3-((3S,4S)-3-Hydroxy-4-methyl-piperidin-1-yl)-3-oxo-propyl]-2-methyl-3-oxo-piperazine-1-carboxylic acid (3,4-dichloro-phenyl)-amide]
237 | C[C@H]1C(=O)N(CCC(=O)N2CCC3(CC3)[C@H](O)C2)CCN1C(=O)Nc1ccc(Cl)c(Cl)c1 [Example 15, (S)-4-[3-((S)-4-Hydroxy-6-aza-spiro[2.5]oct-6-yl)-3-oxo-propyl]-2-methyl-3-oxo-piperazine-1-carboxylic acid (3,4-dichloro-phenyl)-amide]
5.6 | C[C@H]1C(=O)N(CC(O)CC(=O)N2CCC3(CC3)[C@H](O)C2)CCN1C(=O)Nc1ccc(C(F)(F)F)c(Cl)c1 (stereo partly drawn) [Example 41, (S)-4-[(R,S)-2-Hydroxy-4-((S)-4-hydroxy-6-aza-spiro[2.5]oct-6-yl)-4-oxo-butyl]-2-methyl-3-oxo-piperazine-1-carboxylic acid (3-chloro-4-trifluoromethyl-phenyl)-amide]
3.6 | C[C@H]1C(=O)N(CCCC(=O)N2CCC3(CC3)[C@H](O)C2)CCN1C(=O)Nc1ccc(Cl)c(Cl)c1 [Example 25, (S)-4-[4-((S)-4-Hydroxy-6-aza-spiro[2.5]oct-6-yl)-4-oxo-butyl]-2-methyl-3-oxo-piperazine-1-carboxylic acid (3,4-dichloro-phenyl)-amide]
386 | C[C@H]1C(=O)N(CCCC(=O)N2CCC3(CC3)[C@H](O)C2)C(C(=O)O)CN1C(=O)Nc1ccc(Cl)c(Cl)c1 (mixture of isomers) [Example 120, (2RS,5S)-4-(3,4-Dichloro-phenylcarbamoyl)-1-[4-((S)-4-hydroxy-6-aza-spiro[2.5]oct-6-yl)-4-oxo-butyl]-5-methyl-6-oxo-piperazine-2-carboxylic acid]
7.6 | C[C@H]1C(=O)N(CC(O)CC(=O)N2CCC3(CC3)[C@H](O)C2)CCN1C(=O)Nc1ccc(Cl)c(Cl)c1 (stereo partly drawn) [Example 40, (S)-4-[(R,S)-2-Hydroxy-4-((S)-4-hydroxy-6-aza-spiro[2.5]oct-6-yl)-4-oxo-butyl]-2-methyl-3-oxo-piperazine-1-carboxylic acid (3,4-dichloro-phenyl)-amide]
10.5 | C[C@H]1C(=O)N(CCC(F)C(=O)N2CCC3(CC3)[C@H](O)C2)CCN1C(=O)Nc1ccc(C(F)(F)F)c(Cl)c1 (single isomer, unassigned) [Example 137, (S)-4-[(R or S)-3-fluoro-4-((S)-4-hydroxy-6-aza-spiro[2.5]oct-6-yl)-4-oxo-butyl]-2-methyl-3-oxo-piperazine-1-carboxylic acid (3-chloro-4-trifluoromethyl-phenyl)-amide]
4.9 | C[C@H]1C(=O)N(CCCC(=O)N2CCC3(CC3)[C@H](O)C2)CCN1C(=O)Nc1ccc(Cl)c(OC(F)(F)F)c1 [Example 35, (S)-4-[4-((S)-4-Hydroxy-6-aza-spiro[2.5]oct-6-yl)-4-oxo-butyl]-2-methyl-3-oxo-piperazine-1-carboxylic acid (4-chloro-3-trifluoromethoxy-phenyl)-amide]
4650 | C[C@H]1C(=O)N(CCCC(=O)N2CCC(CO)CC2)CCN1C(=O)Nc1cccc(Cl)c1 [Example 109, (S)-4-[4-(4-Hydroxymethyl-piperidin-1-yl)-4-oxo-butyl]-2-methyl-3-oxo-piperazine-1-carboxylic acid (3-chloro-phenyl)-amide]
3070 | C[C@H]1C(=O)N(CCC(=O)N2CCOCC2)CCN1C(=O)Nc1ccc(Cl)c(Cl)c1 [Example 22, (S)-2-Methyl-4-(3-morpholin-4-yl-3-oxo-propyl)-3-oxo-piperazine-1-carboxylic acid (3,4-dichloro-phenyl)-amide]

The next lines start with the molecule.

SMILES | IC50 [nM]
C[C@@H]1CN(CCCC(=O)N2CCC3(CC3)[C@H](O)C2)C(=O)CCN1c1ccc(Cl)c(C(F)(F)F)c1 [Example 126, (R)-1-(4-Chloro-3-trifluoromethyl-phenyl)-4-[4-((S)-4-hydroxy-6-aza-spiro[2.5]oct-6-yl)-4-oxo-butyl]-2-methyl-[1,4]diazepan-5-one] | 2670
COC(=O)[C@H](CCC(=O)N1CCC2(CC2)[C@H](O)C1)N1CCN(C(=O)Nc2ccc(C(F)(F)F)c(C(F)(F)F)c2)[C@@H](C)C1=O [Example 143, (S)-2-[(S)-4-(3,4-Bis-trifluoromethyl-phenylcarbamoyl)-3-methyl-2-oxo-piperazin-1-yl]-5-((S)-4-hydroxy-6-aza-spiro[2.5]oct-6-yl)-5-oxo-pentanoic acid methyl ester] | 337
C[C@@H]1CN(CCC(=O)N2CCCCC2)C(=O)CCN1C(=O)/C=C/c1cccc(Cl)c1 [Example 101, (R)-1-[(E)-3-(3-Chloro-phenyl)-acryloyl]-2-methyl-4-(3-oxo-3-piperidin-1-yl-propyl)-[1,4]diazepan-5-one] | 2480
O=C(/C=C/c1ccc(Cl)c(Cl)c1)N1CCC(=O)N(CCC(=O)N2CCC3(CCCC3)CC2)CC1 [Example 83, 4-[3-(8-Aza-spiro[4.5]dec-8-yl)-3-oxo-propyl]-1-[(E)-3-(3,4-dichloro-phenyl)-acryloyl]-[1,4]diazepan-5-one] | 307
C[C@H]1C(=O)N(CCCC(=O)N2CCC3(CCCO3)CC2)CCN1C(=O)Nc1cccc(Cl)c1 [Example 108, (S)-2-Methyl-4-[4-(1-oxa-8-aza-spiro[4.5]dec-8-yl)-4-oxo-butyl]-3-oxo-piperazine-1-carboxylic acid (3-chloro-phenyl)-amide] | 4070
CC1(O)CCCN(C(=O)CCN2CCN(C(=O)/C=C/c3ccc(Cl)c(Cl)c3)CCC2=O)C1 (racemic) [Example 74, (rac)-1-[(E)-3-(3,4-Dichloro-phenyl)-acryloyl]-4-[3-(3-hydroxy-3-methyl-piperidin-1-yl)-3-oxo-propyl]-[1,4]diazepan-5-one] | 1540
CC1(CO)CCN(C(=O)CN2CCN(C(=O)/C=C/c3ccc(Cl)c(Cl)c3)CCC2=O)CC1 [Example 99, 1-[(E)-3-(3,4-Dichloro-phenyl)-acryloyl]-4-[2-(4-hydroxymethyl-4-methyl-piperidin-1-yl)-2-oxo-ethyl]-[1,4]diazepan-5-one] | 4960
COCC(CC(=O)N1CCC2(CC2)[C@H](O)C1)N1CCN(C(=O)/C=C/c2cccc(Cl)c2)CCC1=O (stereo partly drawn) [Example 13, 1-[(E)-3-(3-Chloro-phenyl)-acryloyl]-4-[(R,S)-3-((S)-4-hydroxy-6-aza-spiro[2.5]oct-6-yl)-1-methoxymethyl-3-oxo-propyl]-[1,4]diazepan-5-one] | 771
C[C@H]1C(=O)N(CCCC(=O)N2CCC3(CC2)CNC(=O)O3)CCN1C(=O)Nc1cccc(Cl)c1 [Example 107, (S)-2-Methyl-3-oxo-4-[4-oxo-4-(2-oxo-1-oxa-3,8-diaza-spiro[4.5]dec-8-yl)-butyl]-piperazine-1-carboxylic acid (3-chloro-phenyl)-amide] | 4870
CC1(CO)CCCN1C(=O)CCN1CCN(C(=O)/C=C/c2ccc(Cl)c(Cl)c2)CCC1=O (racemic) [Example 81, (rac)-1-[(E)-3-(3,4-Dichloro-phenyl)-acryloyl]-4-[3-(2-hydroxymethyl-2-methyl-pyrrolidin-1-yl)-3-oxo-propyl]-[1,4]diazepan-5-one] | 1680
O=C(/C=C/c1ccc(Cl)c(Cl)c1)N1CCC(=O)N(CCC(=O)N2CCC(O)(c3ccccn3)CC2)CC1 [Example 76, 1-[(E)-3-(3,4-Dichloro-phenyl)-acryloyl]-4-[3-(4'-hydroxy-3′,4′,5′,6′-tetrahydro-2′H-[2,4′]bipyridinyl-1′-yl)-3-oxo-propyl]-[1,4]diazepan-5-one] | 971
